No end group written: not given here.

By Kd is commonly meant the free concentration of one partner at which half of the binding sites on the other are occupied at equilibrium, for simple one-to-one binding.

Assay [1] deals with T1, VASP-EVH1 domain (Homo sapiens, UniProt P50552).
T1 construct: ligand peptides with the VASP-EVH1 domain in solution
Kind of assay: Binding affinity of ligand peptides by kinetic Biacore method. The protocol:
With the aid of the synthetic compound 85, ligand peptides with partially or completely replaced proline sequences were synthesized by way of example and investigated for their interaction with the EVH1 domain (pp=component 85). […] The binding affinities were determined by means of NMR titration, the kinetic Biacore method or by means of fluorescence titration.
For orientation: Surface plasmon resonance follows binding to a sensor surface in real time, without labels.

Assay [2] addresses T1, VASP-EVH1 domain. The class given is binding.

T1 sequence (P50552 2-113): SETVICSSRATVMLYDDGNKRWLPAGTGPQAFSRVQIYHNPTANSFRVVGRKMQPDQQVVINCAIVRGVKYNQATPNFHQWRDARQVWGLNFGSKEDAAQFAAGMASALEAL

Take `CC(C)C[C@H](NC(=O)[C@H](CCC(=O)O)NC(=O)[C@H](CC(=O)O)NC(=O)[C@H](CCC(=O)O)NC(=O)[C@@H](NC(=O)[C@@H]1CCCN1C(=O)[C@@H]1CC[C@@H]2C=C[C@@H](C)[C@H](NC(=O)[C@@H]3CCCN3C(=O)[C@H](Cc3c[nH]c4ccccc34)NC(=O)[C@H](CCC(=O)O)NC(=O)[C@H](Cc3ccccc3)NC(=O)[C@@H](N)CO)C(=O)N21)[C@@H](C)O)C(=O)O` [SFEWPppPTEDEL (II)]: the Kd at VASP-EVH1 domain [1] fell in the range of 3.7 to 12.5 µM.

With FPPPPT [FPPPPT], the “binding affinity (KD)” value on VASP-EVH1 domain [2] is “measurable affinity for the VASP-EVH1 domain could no longer be determined”.

The values above are taken from US20140100217A1, “[…] OF PROLINE-RICH PEPTIDES AND THEIR USE” (priority 2012, published 2014).
